Data as given in article PMC7614683, “A small molecule PI3Kα activator for cardioprotection and neuroregeneration” (Nature, 2023).

How the values were obtained:
PI3Kα-KO MEFs = test: pAKT S473 western blot, PI3Kα-KO MEFs; type: cell-based, mouse; settings: TGX-221 0.2 μM
Procedure: Unless otherwise indicated, western blotting was performed with ECL detection. For time course studies, A549 cells were seeded at 250,000 cells per well in 6-well plates in RPMI (10% FBS + 1 mM Na-Pyruvate + 1% P/S) and allowed to adhere overnight. The next day they were serum-starved for 4 h prior to treatment with 100 nM insulin or 5 μM 1938, for the indicated time (5 min to 48 h) at 37°C, 5% CO2. For 1938 titration assays in MEFs, cells were seeded at 150,000 cells per well in 6-well plates and allowed to adhere overnight. The next day they were serum-starved for 4 h prior to treatment with insulin (1 μM), 1938 (0.2 to 30 μM, final DMSO concentration of 1.5%) or inhibitors (final DMSO concentration of ≤1.5%) for 15 min at 37°C, 5% CO2. Cells were washed twice with cold PBS and lysed using cold RIPA buffer (25 mM Tris.HCl pH 7.6, 150 mM NaCl, 1% NP-40, 1% sodium deoxycholate, 0.1% SDS supplemented with protease/phosphatase inhibitor cocktail from Merck). To remove cell debris, homogenates were spun at 13,000 rpm for 15 min at 4°C and the supernatant fraction recovered. Protein concentration was determined by colorimetric assay (BCA assay, Promega). Protein extracts were resolved by SDS-PAGE, transferred to nitrocellulose membranes, and incubated overnight at 4°C with specific antibodies as follows: anti-vinculin (Sigma #V9131) and the following antibodies from Cell Signaling Technology (CST): pAKT-S473 (CST #9271), pS6-S240/244 (CST #2215), pPRAS40-T246 (CST #2640) and total S6 (CST #2317). Primary ntibodies were used at 1:1000 dilution except anti-vinculin (1:10000). Secondary antibodies are also from Cell Signalling Technology: Anti rabbit IgG, HRP linked Antibody (CST #7074S), Anti mouse IgG, HRP linked Antibody (CST #7076S). Raw and uncropped blots are shown in Supplementary Fig. 1.

human p110α/p85α (PI3Kα) = target: T1, human p110α/p85α (PI3Kα) (Homo sapiens, UniProt P42336); test: ADP-Glo in vitro lipid kinase assay, PI3Kα; type: biochemical; settings: for Maximum activity relative to 1938 / Maximum activity relative to pY control: SI Table 3; for reduction in activity: relative to 1938; for EC50: SI Table 3, 1938 analogues, read-out: EC50
T1 construct: Full-length human p110α was expressed either in a complex with full-length human p85α (for HTS, biochemistry and HDX-MS); 6xHis tag followed by TEV protease site (N); host or cells: Spodoptera frugiperda Sf9, baculovirus
T1 sequence (P42336 whole entry): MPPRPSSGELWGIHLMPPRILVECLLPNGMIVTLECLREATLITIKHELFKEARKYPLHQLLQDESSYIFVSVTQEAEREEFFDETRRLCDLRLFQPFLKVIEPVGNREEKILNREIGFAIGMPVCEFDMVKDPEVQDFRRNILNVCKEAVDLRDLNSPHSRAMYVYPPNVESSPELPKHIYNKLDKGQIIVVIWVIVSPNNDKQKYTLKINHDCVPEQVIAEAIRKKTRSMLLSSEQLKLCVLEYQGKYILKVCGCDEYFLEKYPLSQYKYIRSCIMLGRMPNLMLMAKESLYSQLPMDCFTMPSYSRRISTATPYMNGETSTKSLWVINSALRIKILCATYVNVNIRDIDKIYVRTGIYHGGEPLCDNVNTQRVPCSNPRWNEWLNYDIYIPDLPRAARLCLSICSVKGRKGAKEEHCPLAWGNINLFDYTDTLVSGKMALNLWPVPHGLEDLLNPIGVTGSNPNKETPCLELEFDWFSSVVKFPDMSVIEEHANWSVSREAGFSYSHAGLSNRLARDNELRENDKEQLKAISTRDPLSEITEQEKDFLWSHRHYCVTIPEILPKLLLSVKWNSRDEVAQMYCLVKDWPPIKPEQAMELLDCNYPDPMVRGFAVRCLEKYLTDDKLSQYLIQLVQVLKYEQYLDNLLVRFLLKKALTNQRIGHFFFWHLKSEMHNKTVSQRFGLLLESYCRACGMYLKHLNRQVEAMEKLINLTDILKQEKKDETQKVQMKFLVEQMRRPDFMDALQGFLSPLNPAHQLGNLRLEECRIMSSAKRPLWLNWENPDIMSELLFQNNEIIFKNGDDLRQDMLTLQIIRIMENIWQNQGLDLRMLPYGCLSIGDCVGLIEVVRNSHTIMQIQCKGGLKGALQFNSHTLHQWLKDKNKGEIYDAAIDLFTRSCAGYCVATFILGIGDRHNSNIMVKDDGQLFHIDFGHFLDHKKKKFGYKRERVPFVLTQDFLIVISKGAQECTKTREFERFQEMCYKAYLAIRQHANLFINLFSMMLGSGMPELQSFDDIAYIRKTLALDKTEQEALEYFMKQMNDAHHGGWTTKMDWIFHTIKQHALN
T1 sequence (P27986 whole entry partner): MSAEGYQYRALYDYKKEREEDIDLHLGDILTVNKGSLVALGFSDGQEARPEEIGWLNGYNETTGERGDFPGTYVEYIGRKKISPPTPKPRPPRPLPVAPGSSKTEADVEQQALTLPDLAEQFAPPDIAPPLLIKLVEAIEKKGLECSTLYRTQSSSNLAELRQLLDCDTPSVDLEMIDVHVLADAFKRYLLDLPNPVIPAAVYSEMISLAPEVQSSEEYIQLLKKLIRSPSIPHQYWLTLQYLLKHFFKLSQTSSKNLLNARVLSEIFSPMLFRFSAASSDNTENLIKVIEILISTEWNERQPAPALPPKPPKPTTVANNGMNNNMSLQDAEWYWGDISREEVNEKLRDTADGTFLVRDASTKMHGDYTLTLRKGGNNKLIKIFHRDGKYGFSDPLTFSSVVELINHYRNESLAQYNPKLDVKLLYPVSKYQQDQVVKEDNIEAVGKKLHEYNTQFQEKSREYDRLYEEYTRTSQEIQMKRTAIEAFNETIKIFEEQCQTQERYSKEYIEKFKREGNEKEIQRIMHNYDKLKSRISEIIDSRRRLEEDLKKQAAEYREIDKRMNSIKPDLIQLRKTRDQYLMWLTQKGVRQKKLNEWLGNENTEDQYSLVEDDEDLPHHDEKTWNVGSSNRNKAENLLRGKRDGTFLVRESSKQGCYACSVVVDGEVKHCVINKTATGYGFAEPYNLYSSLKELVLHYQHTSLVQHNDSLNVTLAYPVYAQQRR
Procedure: Kinase reactions were performed with ADP-Glo kinase assay kit (Promega Corporation). The enzyme, substrate and compounds were diluted in reaction buffer (20 mM HEPES, 50 mM NaCl, 50 mM KCl, 3 mM MgCl2, 1 mM EGTA, 1 mM TCEP, pH 7.4). Final concentrations of PI3Kα and PI3Kδ used were 25 nM and 50 nM for PI3Kβ. Liposomes (5% brain PI(4,5)P2, 20% brain phosphatidylserine, 45% brain phosphatidylethanolamine, 15% brain phosphatidylcholine, 10% cholesterol, 5% sphingomyelin (Avanti Polar Lipids)) were used at a final concentration of 1 mg/ml.
For the HTS, the reaction mixture contained 0.75 μl enzyme, 15 nl compound and/or pY and 0.75 μl of liposome substrate mixed with ATP. […] (GL Biochem, Shanghai Ltd). ATP was used at a final concentration of 500 μM unless otherwise stated. The final DMSO concentration in the assay was 1%. The experiments were performed at room temperature for 3 h using 1536-well white-polystyrene plates (Corning #3729) before addition of 2 μl of ADP-Glo R1 to terminate the reaction. The plate was incubated for 40 min, followed by addition of 4 μl of ADP-Glo R2 and incubated further for 60 min in the dark. Luminescence was read using an EnVision (PerkinElmer) plate reader. All analyses were performed using Genedata Screener.
For re-screening of HTS hits and routine compound profiling, the reaction mixture contained 2 μl PI3K enzyme, 2 μl compound and/or pY and 2 μl of liposome substrate mixed with ATP. ATP was used at a final concentration of 500 μM for PI3Kα and PI3Kβ and at 200 μM for PI3Kδ, unless otherwise stated. The final DMSO concentration in the assay was 1%. The experiments were performed at room temperature for 3 h using 384 white-polystyrene plates (Corning #3824) before addition of 6 μl of ADP-Glo R1 to terminate the reaction. The plate was incubated for 45 min, followed by addition of 12 μl of ADP-Glo R2 and incubated further for 60 min in the dark. Luminescence was read using a Sense (Hidex) plate reader. […] All analyses were performed using GraphPad Prism 7.
For characterisation of the effects of 1938 on in vitro PI3K enzymology, all reactions were performed at room temperature with 384 white-polystyrene plates (Corning #3574). The final DMSO concentration in the assay was between 0.5%-1.8%. The reaction mixture contained 2 μl PI3K enzyme, 2 μl compound and/or pY and 2 μl of liposome substrate mixed with ATP. ATP was used at a final concentration of 200 μM, unless otherwise stated.

A549 cells = test: Phosphoinositide quantification by mass spectrometry, A549; type: cell-based, human; settings: A549, 2 min
Procedure: (§1) A549 cells (5.10^5) or wild-type MEFs (3.10^5) were plated in complete media onto 3.5 cm dishes or 60 mm dishes respectively for 24 h, prior to FCS-free starvation media for 16 h. MEFs, in addition, were supplemented with arachidonic acid in the FCS-free starvation media as previously described. […] Reactions were terminated in 600 μl ice-cold 1 M HCl and cells scraped and resuspended, then divided into two equal samples in eppendorfs. […] The data are shown as response ratios, calculated by normalizing the multiple reaction monitoring (MRM)-targeted lipid integrated response area to that of a known amount of relevant internal standard. To account for any cell input variability, PIP3 response ratios were normalized to C38:4-PI response ratios; while PI(3,4)P2 response ratios were normalised to PI(4,5)P2 response ratios. Data shown are mean ±SD for n ≥3, except for non-DMSO control in MEF PIP3 measurements where n=1.

MEFs = test: Phosphoinositide quantification by mass spectrometry, MEFs; type: cell-based, mouse; settings: 1938 at 5 μM, PDGF 20 ng/ml 2 min
Procedure: as §1

Compound	Maximum activity relative to 1938 (human p110α/p85α (PI3Kα)) [%]	Maximum activity relative to pY control (human p110α/p85α (PI3Kα)) [%]	further results
Cc1cc(C(C)Nc2ccccc2)c2nc(N3CCOCC3)cc(=O)n2c1 (stereo not drawn) [TGX-221, reference compound]	–	–	effect on insulin-stimulated pAKT^S473 (PI3Kα-KO MEFs): sensitivity of insulin-stimulated pAKT^S473
CCN1CCN(c2ccc(Nc3nccc(Nc4cccc5c4N(C(C)=O)CC5)n3)cc2)CC1 [Compound 2152]	4	16 ± 8	reduction in activity (human p110α/p85α (PI3Kα)): > 95%
COc1cc(N2CCN(C)CC2)ccc1Nc1cc(Nc2cccc3c2N(C(C)=O)CC3)ccn1 [Compound 1889]	102	–	EC50 (human p110α/p85α (PI3Kα)): 56 ± 24 µM
PDGF	–	–	PIP3 response (A549 cells): no PIP3 induced; PI(3,4)P2 signal by mass spectrometry (MEFs): detected
COc1cc(Nc2cc(Nc3cccc4c3N(C(C)=O)CC4)ccn2)cc(OC)c1OC [Compound 1887]	80	–	EC50 (human p110α/p85α (PI3Kα)): 36 ± 5 µM
CC(=O)N1CCc2cccc(Nc3ccnc(Nc4ccccc4)c3)c21 [Compound 2016]	9	36 ± 8	–
CCN1CCN(c2ccc(Nc3cc(Nc4ccncn4)ccn3)cc2)CC1 [Compound 2106]	4	14 ± 13	reduction in activity (human p110α/p85α (PI3Kα)): > 95%
